In EP0687685A1, “PHYSIOLOGICALLY ACTIVE PEPTIDE” (TEIJIN LIMITED, priority 1993, dated 1994):
Positions of bridges follow the written chain, without caps; N, C: chain ends. Residues, ends and D or L forms follow the SMILES beside them. Chains are numbered I, II in the order given. *: point of attachment. Mob = COc1ccc(C*)cc1; Acm = CC(=O)NC*

Tests used:
human type II PLA₂ [1] = biological target: T1, human type II PLA₂ (Homo sapiens, UniProt P14555); experiment: Enzyme inhibition of human type II PLA₂ in the presence of heparin, radiolabeled synthetic phospholipid (method of Dole); type: biochemical; conditions: PLA₂ enzyme 200 ng/ml; for inhibition at 5 µg/mL / remaining activity at 5 µg/mL: peptide 5 µg/ml; for inhibition at 10 µg/mL / remaining activity at 10 µg/mL: peptide 10 µg/ml; for inhibition at 50 µg/mL / remaining activity at 50 µg/mL: peptide 50 µg/ml; for inhibition at 100 µg/mL / remaining activity at 100 µg/mL: peptide 100 µg/ml
T1 construct: made in house; host or cells: Sf9 insect cells, baculovirus (AcNPV), vector pAcTJI1; purified from culture supernatant
T1 sequence (P14555 21-144): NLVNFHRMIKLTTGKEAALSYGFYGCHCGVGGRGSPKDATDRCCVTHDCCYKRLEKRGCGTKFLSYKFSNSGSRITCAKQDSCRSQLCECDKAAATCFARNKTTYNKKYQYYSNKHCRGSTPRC

human type II PLA₂ [2] = biological target: T1, human type II PLA₂; experiment: Inhibition of binding between heparin and human II-type PLA₂ (heparin-bound plate, biotinated PLA₂)
Protocol: 500 µg of human type II (non-pancreatic) purified in Reference Example 1 was reacted with 2 ml of a solution of 5 mM sulfosuccinyl 6-(biotinamide hexose) in 0.1M NaHCO₃ at a room temperature for one hour, and the product was purified by a heparin Sepharose column to obtain biotinated human type II PLA₂.
50 µl of a phosphate buffered saline (PBS) containing 50 µg/ml poly-L-lysine was added to each well of a 96-well ELISA plate, and after incubation at room temperature for an hour, each well was twice washed with PBS, 50 µl of PBS solution containing 20 µg/ml heparin was added to each well, and a reaction was further carried out at a room temperature for an hour. Each well was twice washed with PBS, 200 µl of PBS solution containing 30 mg/ml bovine serum albumin (BSA) was added to each well, and after reaction at 37°C for an hour, the plate was stored at 4°C.
To each well of a peparin-bound plate prepared in Reference Example 3, 50 µl of a solution containing a peptide obtained in Examples 1 to 10 was added. After incubating at room temperature for 45 minutes, 50 µg/ml biotinated human II-type PLA₂ obtained in Example 2 was added thereon, and reaction was further carried out at room temperature for an hour. Each well was washed three times with PBS containing 0.05% Tween 20, 50 µl of a 3% BSA/PBS solution containing alkaline phosphatase-conjugated streptoavidin (Taga, ×2000 dilution) was added thereon, and a reaction was carried out at a room temperature for an hour. Each well was washed three times with PBS containing 0.05% Tween 20, 100 µl of a 1 mM p-nitrophenylphosphate/1M ethanolamine aqueous solution (pH 9.8) was added thereon, and a reaction was carried out at room temperature for an hour. Absorption of reaction mixture was measured at 405 nm using a microplate reader (Molecular Device Inc). A result is shown in Fig. 9, and IC₅₀ (µM) was also obtained.

human type II PLA₂ [3] = biological target: T1, human type II PLA₂; experiment: Enzyme inhibition of human type II PLA₂ in the presence of heparin, radioactive phospholipid of E. coli origin; type: biochemical; conditions: heparin 10 µg/ml, PLA₂ enzyme 10 ng/ml
[4] = heparin 50 µg/ml, read-out: PLA₂enzyme activity (%)
[5] = heparin 10 µg/ml, read-out: PLA₂enzyme activity (%)

inhibition at 5 µg/mL (human type II PLA₂ [1]; heparin 50 µg/ml) [%] | remaining activity at 5 µg/mL (human type II PLA₂ [1]; [4]) [%] | inhibition at 10 µg/mL (human type II PLA₂ [1]; heparin 50 µg/ml) [%] | remaining activity at 10 µg/mL (human type II PLA₂ [1]; [4]) [%] | inhibition at 50 µg/mL (human type II PLA₂ [1]; heparin 50 µg/ml) [%] | remaining activity at 50 µg/mL (human type II PLA₂ [1]; [4]) [%] | inhibition at 100 µg/mL (human type II PLA₂ [1]; heparin 50 µg/ml) [%] | remaining activity at 100 µg/mL (human type II PLA₂ [1]; [4]) [%] | SMILES | other results
25 | 75 | 52 | 48 | 81 | 19 | 89 | 11 | COc1ccc(CSC[C@H](NC(=O)CNC(=O)[C@H](CCCNC(=N)N)NC(=O)[C@@H](N)CCCCN)C(=O)NCC(=O)N[C@H](C(=O)N[C@@H](CCCCN)C(=O)N[C@@H](Cc2ccccc2)C(=O)N[C@@H](CC(C)C)C(=O)N[C@@H](CO)C(=O)N[C@@H](Cc2ccc(O)cc2)C(=O)N[C@@H](CCCCN)C(=O)N[C@@H](Cc2ccccc2)C(=O)N[C@@H](CO)C(=O)N[C@@H](CSSC[C@H](NC(=O)[C@H](CO)NC(=O)[C@H](Cc2ccccc2)NC(=O)[C@H](CCCCN)NC(=O)[C@H](Cc2ccc(O)cc2)NC(=O)[C@H](CO)NC(=O)[C@H](CC(C)C)NC(=O)[C@H](Cc2ccccc2)NC(=O)[C@H](CCCCN)NC(=O)[C@@H](NC(=O)CNC(=O)[C@H](CSCc2ccc(OC)cc2)NC(=O)CNC(=O)[C@H](CCCNC(=N)N)NC(=O)[C@@H](N)CCCCN)[C@@H](C)O)C(=O)O)C(=O)O)[C@@H](C)O)cc1 [Peptide (2)] (I: H-KRGC(Mob)GTKFLSYKFSC-OH / II: H-KRGC(Mob)GTKFLSYKFSC-OH; disulfide I:15-II:15) | –
– | – | – | – | – | – | – | – | COc1ccc(CSC[C@H](NC(=O)[C@H](CO)NC(=O)[C@H](Cc2ccccc2)NC(=O)[C@H](CCCCN)NC(=O)[C@H](Cc2ccc(O)cc2)NC(=O)[C@H](CO)NC(=O)[C@H](CC(C)C)NC(=O)[C@H](Cc2ccccc2)NC(=O)[C@H](CCCCN)NC(=O)[C@@H](NC(=O)CNC(=O)[C@H](CS)NC(=O)CNC(=O)[C@H](CCCNC(=N)N)NC(=O)[C@@H](N)CCCCN)[C@@H](C)O)C(=O)O)cc1 [Peptide (3)] (H-KRGCGTKFLSYKFSC(Mob)-OH) | IC50 (human type II PLA₂ [2]): 2700 nM
42 | 58 | 62 | 38 | 81 | 19 | 86 | 14 | CC(=O)NCSC[C@H](NC(=O)[C@H](CO)NC(=O)[C@H](Cc1ccccc1)NC(=O)[C@H](CCCCN)NC(=O)[C@H](Cc1ccc(O)cc1)NC(=O)[C@H](CO)NC(=O)[C@H](CC(C)C)NC(=O)[C@H](Cc1ccccc1)NC(=O)[C@H](CCCCN)NC(=O)[C@@H](NC(=O)CNC(=O)[C@H](CSSC[C@H](NC(=O)CNC(=O)[C@H](CCCNC(=N)N)NC(=O)[C@@H](N)CCCCN)C(=O)NCC(=O)N[C@H](C(=O)N[C@@H](CCCCN)C(=O)N[C@@H](Cc1ccccc1)C(=O)N[C@@H](CC(C)C)C(=O)N[C@@H](CO)C(=O)N[C@@H](Cc1ccc(O)cc1)C(=O)N[C@@H](CCCCN)C(=O)N[C@@H](Cc1ccccc1)C(=O)N[C@@H](CO)C(=O)N[C@@H](CSCNC(C)=O)C(=O)O)[C@@H](C)O)NC(=O)CNC(=O)[C@H](CCCNC(=N)N)NC(=O)[C@@H](N)CCCCN)[C@@H](C)O)C(=O)O [Peptide (13)] (I: H-KRGCGTKFLSYKFSC(Acm)-OH / II: H-KRGCGTKFLSYKFSC(Acm)-OH; disulfide I:4-II:4) | –
– | – | – | – | – | – | – | – | CC(C)C[C@@H]1NC(=O)[C@H](Cc2ccccc2)NC(=O)[C@H](CCCCN)NC(=O)[C@H]([C@@H](C)O)NC(=O)CNC(=O)[C@@H](NC(=O)CNC(=O)[C@H](CCCNC(=N)N)NC(=O)[C@@H](N)CCCCN)CSSC[C@@H](C(=O)O)NC(=O)[C@H](CO)NC(=O)[C@H](Cc2ccccc2)NC(=O)[C@H](CCCCN)NC(=O)[C@H](Cc2ccc(O)cc2)NC(=O)[C@H](CO)NC(=O)[C@H](CC(C)C)NC(=O)[C@H](Cc2ccccc2)NC(=O)[C@H](CCCCN)NC(=O)[C@H]([C@@H](C)O)NC(=O)CNC(=O)[C@@H](NC(=O)CNC(=O)[C@H](CCCNC(=N)N)NC(=O)[C@@H](N)CCCCN)CSSC[C@@H](C(=O)O)NC(=O)[C@H](CO)NC(=O)[C@H](Cc2ccccc2)NC(=O)[C@H](CCCCN)NC(=O)[C@H](Cc2ccc(O)cc2)NC(=O)[C@H](CO)NC1=O [Peptide (17)] (I: H-KRGCGTKFLSYKFSC-OH / II: H-KRGCGTKFLSYKFSC-OH; disulfide I:4-II:15, I:15-II:4) | inhibition at 1 µg/mL (human type II PLA₂ [1]; peptide 1 µg/ml, heparin 10 µg/ml): 69%; remaining activity at 1 µg/mL (human type II PLA₂ [1]; peptide 1 µg/ml, heparin 10 µg/ml, read-out: PLA₂enzyme activity (%)): 31%; inhibition at 5 µg/mL (human type II PLA₂ [1]; heparin 10 µg/ml): 91%; remaining activity at 5 µg/mL (human type II PLA₂ [1]; [5]): 9%; inhibition at 10 µg/mL (human type II PLA₂ [1]; heparin 10 µg/ml): 94%; remaining activity at 10 µg/mL (human type II PLA₂ [1]; [5]): 6%
43 | 57 | 63 | 37 | 78 | 22 | 82 | 18 | CC(=O)NCSC[C@H](NC(=O)CNC(=O)[C@H](CCCNC(=N)N)NC(=O)[C@@H](N)CCCCN)C(=O)NCC(=O)N[C@H](C(=O)N[C@@H](CCCCN)C(=O)N[C@@H](Cc1ccccc1)C(=O)N[C@@H](CC(C)C)C(=O)N[C@@H](CO)C(=O)N[C@@H](Cc1ccc(O)cc1)C(=O)N[C@@H](CCCCN)C(=O)N[C@@H](Cc1ccccc1)C(=O)N[C@@H](CO)C(=O)N[C@@H](CSSC[C@H](NC(=O)[C@H](CO)NC(=O)[C@H](Cc1ccccc1)NC(=O)[C@H](CCCCN)NC(=O)[C@H](Cc1ccc(O)cc1)NC(=O)[C@H](CO)NC(=O)[C@H](CC(C)C)NC(=O)[C@H](Cc1ccccc1)NC(=O)[C@H](CCCCN)NC(=O)[C@@H](NC(=O)CNC(=O)[C@H](CSCNC(C)=O)NC(=O)CNC(=O)[C@H](CCCNC(=N)N)NC(=O)[C@@H](N)CCCCN)[C@@H](C)O)C(=O)O)C(=O)O)[C@@H](C)O [Peptide (11)] (I: H-KRGC(Acm)GTKFLSYKFSC-OH / II: H-KRGC(Acm)GTKFLSYKFSC-OH; disulfide I:15-II:15) | –
59 | 41 | 72 | 28 | 82 | 18 | 90 | 10 | CC(C)C[C@@H]1NC(=O)[C@H](Cc2ccccc2)NC(=O)[C@H](CCCCN)NC(=O)[C@H]([C@@H](C)O)NC(=O)CNC(=O)[C@@H](NC(=O)CNC(=O)[C@H](CCCNC(=N)N)NC(=O)[C@@H](N)CCCCN)CSSC[C@H](NC(=O)CNC(=O)[C@H](CCCNC(=N)N)NC(=O)[C@@H](N)CCCCN)C(=O)NCC(=O)N[C@@H]([C@@H](C)O)C(=O)N[C@@H](CCCCN)C(=O)N[C@@H](Cc2ccccc2)C(=O)N[C@@H](CC(C)C)C(=O)N[C@@H](CO)C(=O)N[C@@H](Cc2ccc(O)cc2)C(=O)N[C@@H](CCCCN)C(=O)N[C@@H](Cc2ccccc2)C(=O)N[C@@H](CO)C(=O)N[C@H](C(=O)O)CSSC[C@@H](C(=O)O)NC(=O)[C@H](CO)NC(=O)[C@H](Cc2ccccc2)NC(=O)[C@H](CCCCN)NC(=O)[C@H](Cc2ccc(O)cc2)NC(=O)[C@H](CO)NC1=O [Peptide (16)] (I: H-KRGCGTKFLSYKFSC-OH / II: H-KRGCGTKFLSYKFSC-OH; disulfide I:4-II:4, I:15-II:15) | inhibition at 1 µg/mL (human type II PLA₂ [3]; peptide 1 µg/ml): 88%; remaining activity at 1 µg/mL (human type II PLA₂ [3]; peptide 1 µg/ml): 12%; inhibition at 5 µg/mL (human type II PLA₂ [3]; peptide 5 µg/ml): 97%; remaining activity at 5 µg/mL (human type II PLA₂ [3]; peptide 5 µg/ml): 3%; inhibition at 10 µg/mL (human type II PLA₂ [3]; peptide 10 µg/ml): 98%; remaining activity at 10 µg/mL (human type II PLA₂ [3]; peptide 10 µg/ml): 2%
